In test [1] the test system is Human large cell immunoblastic lymphoma cell line SR. Nature of the test: Inhibition of SR cell proliferation (CellTiter luminescent viability). The format is cell-based. The note with it: Table IB1, ALK inhibitor-based, 96 hours, read-out: Inhibitory activity (IC50, nM) on tumor cell proliferation, SR. As to the method:
(§1) The tumor cells used herein were cultured in a cell culture medium listed in table 3 at 37 °C in an incubator with 5% CO2. Prior to experimentation, all cell lines used were correctly identified by STR profiling, and tested negative for mycoplasma contamination using a mycoplasma detection kit through routine screenings.
(§2) The IC50 values of the compounds of the present disclosure (including the compounds in Table 1, Table 2, and Examples 1-468) were determined using the CellTiter-Meiluncell Luminescent Cell Viability Assay Kit from Dalian Meilun Biotech Co., Ltd. The detailed procedure is as follows: Tumor cells were seeded in 96-well cell culture plates at the densities specified in Table 4. On the following day, the test compounds of the present disclosure were subjected to serial dilution. The dilution can be performed according to one of the following two methods: • (1) The first dilution method: The test compounds of the present disclosure (including the compounds in Table 1, Table 2, and Examples 1-468) were subjected to 5-fold serial dilutions starting from a highest concentration of 2000 μM, resulting in a total of 9 concentrations from high to low (2000, 400, 80, 16, 3.2, 0.64, 0.128, 0.0256, 0.00512 μM). Subsequently, 0.5 μL of the test compound dilution was transferred into the 96-well plate containing the cells, with each well containing 100 μL of cell culture medium. […] Into the 96-well plate, the diluted test compounds and corresponding detection reagents were added, resulting in final test compound concentrations of 500 nM and 10 nM, respectively. The experimental procedure is described below using the diluted 2 μM test compound as an example.
(§3) 0.5 μL of the aforementioned diluted compound of the present disclosure (including the compounds in Table 1, Table 2, and Examples 1-468) was added to the seeded cells in 100 μL of medium, yielding a final test compound concentration of 10 nM. After the cells were treated with the compounds of the present disclosure for a specified period, the cell viability assay reagent was added to the culture medium according to the kit's instructions to determine cell viability. […] All controls were treated using the same procedure as the compounds of the present disclosure. The growth inhibition curves for the compounds of the present disclosure were plotted using Prism GraphPad software, and the IC50 values were calculated therefrom.

The target in test [2] is T1, human Cereblon WT GST-tagged protein (CRBN) (Homo sapiens, UniProt Q96SW2).
T1 construct: purchased CISBIO 64BDCRBNPEH
T1 sequence (Q96SW2 whole entry): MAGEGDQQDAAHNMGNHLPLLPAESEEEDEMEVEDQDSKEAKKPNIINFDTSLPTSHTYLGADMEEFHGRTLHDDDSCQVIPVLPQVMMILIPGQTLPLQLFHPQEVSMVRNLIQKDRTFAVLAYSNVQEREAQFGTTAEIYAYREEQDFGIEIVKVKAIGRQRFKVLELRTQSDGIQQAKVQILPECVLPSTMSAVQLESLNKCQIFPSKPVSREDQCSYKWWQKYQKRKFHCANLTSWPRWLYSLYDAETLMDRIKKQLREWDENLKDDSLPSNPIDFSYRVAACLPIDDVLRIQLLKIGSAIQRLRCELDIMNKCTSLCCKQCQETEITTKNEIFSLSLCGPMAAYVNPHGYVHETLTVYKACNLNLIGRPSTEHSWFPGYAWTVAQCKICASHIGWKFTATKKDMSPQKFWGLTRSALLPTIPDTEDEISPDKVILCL
Nature of the test: CRBN binding by HTRF (Cereblon binding kit). The gist of the method:
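GST-tagged human Cereblon WT was incubated 3 h at room temperature with compound, thalidomide-Re tracer and Eu anti-GST antibody. Final compound concentrations were 10 to 0.00064 µM (7 points) or 2 and 0.5 µM. Inhibition rate was calculated from HTRF 665/620 nm ratios versus solvent and blank controls.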

Test [3] has as its system Human diffuse large B-cell lymphoma cell line (TMD8). Briefly: Inhibition of TMD8 cell proliferation (CellTiter luminescent viability). It counts as cell-based. The note with it: Homo sapiens, TMD8, 96 h, Table IF1, AR inhibitor-based; for inhibition at 0.01 µM: TMD8, 10 nM, read-out: Inhibition Rate at 10 nM (%); for inhibition at 0.5 µM: TMD8, 500 nM, read-out: Inhibition Rate at 500 nM (%). As to the method:
as §1, §2, §3

The test system of test [4] is Human acute lymphocytic leukemia T lymphocytes cell line (CCRF-CEM). Briefly: Inhibition of CCRF-CEM cell proliferation (CellTiter luminescent viability). The note with it: Homo sapiens, 96 h, Table IF2, AR inhibitor-based; for inhibition at 0.01 µM: 10 nM, read-out: Inhibition Rate at 10 nM (%); for inhibition at 0.5 µM: 500 nM, read-out: Inhibition Rate at 500 nM (%). It counts as cell-based.

Test [5] relates to Human T lymphocytic leukemia cell line (Jurkat). Briefly: Inhibition of Jurkat cell proliferation (CellTiter luminescent viability). The format is cell-based. The note with it: Homo sapiens, Table IF3, AR inhibitor-based, 96 hours; for inhibition at 0.01 µM: 10 nM, read-out: Inhibition Rate at 10 nM (%); for inhibition at 0.5 µM: 500 nM, read-out: Inhibition Rate at 500 nM (%). As to the method: as §1, §2, §3

For test [6], the system named is Human B-Cell Lymphoma Cells (RPMI-8226). Briefly: Inhibition of RPMI-8226 cell proliferation (CellTiter luminescent viability). The format is cell-based. The note with it: RPMI-8226, 500 nM, read-out: Inhibition Rate at 500 nM (%). As to the method:
as §1, §2, §3

Test in test [7]: as above
It counts as cell-based. The note with it: Homo sapiens, read-out: Inhibition Rate at 10 nM (%). As to the method: as §1, §2, §3

Test [8] relates to Human lung cancer cell line (H292). Briefly: Inhibition of H292 cell proliferation (CellTiter luminescent viability). It counts as cell-based. The note with it: NCI-H292, Table IE2, CDK4/6 inhibitor-based, 96 hours. As to the method:
as §1, §2, §3

The test system of test [9] is Human myeloid monocytic leukemia cell line (MV-4-11). Briefly: Inhibition of MV-4-11 cell proliferation (CellTiter luminescent viability). The format is cell-based. The note with it: Homo sapiens, MV4-11, Table IE3, CDK4/6 inhibitor-based, 96 hours. The gist of the method: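 IC50 is fitted from luminescent viability (CellTiter-Meiluncell) curves. Nine-point, 5-fold dilution series (top stock 2000 μM) are added at 0.5 μL per 100 μL medium to cells plated the day before, with growth at 37 °C and 5% CO2.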

Experimental findings from US20260364184A1, “COMPOUND BASED ON OXOISOINDOLINYL-SUBSTITUTED TETRAHYDROPYRIMIDINE-DIONE AND USE THEREOF” (GLUETACS THERAPEUTICS (SHANGHAI) CO., LTD., priority 2023, published 2026) are described below.

Structures are written as SMILES. Like-named read-outs stand apart in the source and are kept apart here.

Consider `COc1cc(N2CCC(N3CCN(C)CC3)CC2)ccc1Nc1ncc(Cl)c(Nc2ccccc2P(C)(C)=O)n1` [brigatinib, Brigatinib, reference compound], for which the IC50 in test [1] was in the range of 1000 to 5000 nM. Besides, the “Inhibition Rate at 0.5 μM (%)” value in [2] (0.5 μM) was “a (0% < a ≤ 10%)”. Moreover, in test [2] (2 μM), the “Inhibition Rate at 2 μM (%)” value was “a1 (10% < a1 ≤ 20%)”.

As to `N#Cc1ccc(O[C@H]2CC[C@H](NC(=O)c3ccc(N4CCC(CN5CCN(C6CCN(c7ccc8c(c7)C(=O)N(N7CCC(=O)NC7=O)C8=O)CC6(F)F)CC5)CC4)nn3)CC2)cc1Cl` (some centres unmarked) [GT-05235, N-((1r,4r)-4-(3-chloro-4-cyanophenoxy)cyclohexyl)-6-(4-((4-(1-(2-(2,4-dioxotetrahydropyrimidin-1(2H)-yl)-1,3-dioxoisoindolin-5-yl)-3,3-difluoropiperidin-4-yl)piperazin-1-yl)methyl)piperidin-1-yl)pyridazine-3-carboxamide], the inhibition at 0.01 µM in [3] fell in the range of 5 to 10%; in test [4] it was 10 to 15%; in test [5], 5 to 10%. The inhibition at 0.5 µM in [3] was in the range of 35 to 40%; in [4] it was 30 to 40%; in test [5], 30 to 40%.

Consider `CC(C)(O)c1cc2nn(C3CCN(Cc4ccc5c(c4)C(=O)N(N4CCC(=O)NC4=O)C5=O)CC3)cc2cc1NC(=O)c1cccc(C(F)(F)F)n1` [GT-05752, N-(2-(1-((2-(2,4-dioxotetrahydropyrimidin-1(2H)-yl)-1,3-dioxoisoindolin-5-yl)methyl)piperidin-4-yl)-6-(2-hydroxypropan-2-yl)-2H-indazol-5-yl)-6-(trifluoromethyl) picolinamide], for which the inhibition at 0.5 µM in [6] (Table IA4, IRAK4 inhibitor-based, 96 hours) fell in the range of 25 to 30%. Also, the inhibition at 0.01 µM in test [7] (Table IA4, IRAK4 inhibitor-based, RPMI-8226, 10 nM, 96 hours) was 15 to 20%.

For the compound `CNC(=O)c1ccc(N2C(=S)N(c3ccc(C#N)c(C(F)(F)F)c3)C(=O)C2(C)C)cc1F` [Enzalutamide, reference compound], the inhibition at 0.01 µM in test [3] was 10 to 15%; in [4], 0 to 5%; in [5], 5 to 10%. The inhibition at 0.5 µM in test [3] was in the range of 10 to 15%; in [4], 0 to 5%; in [5], 5 to 10%.

`N#CC1(CNc2nc(-c3cc(NC4CCN(CC5CCN(c6cccc7c6C(=O)N(N6CCC(=O)NC6=O)C7=O)CC5)CC4)ncc3Cl)cs2)CCOCC1` [GT-08345, 4-(((4-(5-chloro-2-((1-((1-(2-(2,4-dioxotetrahydropyrimidin-1(2H)-yl)-1,3-dioxoisoindolin-4-yl)piperidin-4-yl)methyl)piperidin-4-yl)amino)pyridin-4-yl)thiazol-2-yl)amino)methyl)tetrahydro-2H-pyran-4-carbonitrile]: the inhibition at 0.5 µM in test [6] was in the range of 5 to 10%. In test [7] (RPMI-8226, 10 nM), the inhibition at 0.01 µM is 20 to 30%.

In the case of `N#Cc1ccc(O[C@H]2CC[C@H](NC(=O)c3ccc(N4CCC(CN5CC6CC(C5)N6c5ccc6c(c5)C(=O)N(N5CCC(=O)NC5=O)C6=O)CC4)nn3)CC2)cc1Cl` [GT-05231, N-((1r,4r)-4-(3-chloro-4-cyanophenoxy)cyclohexyl)-6-(4-((6-(2-(2,4-dioxotetrahydropyrimidin-1(2H)-yl)-1,3-dioxoisoindolin-5-yl)-3,6-diazabicyclo[3.1.1]heptan-3-yl)methyl)piperidin-1-yl)pyridazine-3-carboxamide], the inhibition at 0.01 µM in [3] was in the range of 5 to 10%; in test [4], 5 to 10%; in test [5], 10 to 15%. Moreover, the inhibition at 0.5 µM in test [3] lay within 40 to 60%; in [4], 30 to 40%; in test [5], 30 to 40%.

`N#Cc1ccc(O[C@H]2CC[C@H](NC(=O)c3ccc(N4CCC(CN5CCN(c6cccc7c6C(=O)N(N6CCC(=O)NC6=O)C7=O)CC5)CC4)nn3)CC2)cc1Cl` [GT-05230, N-((1r,4r)-4-(3-chloro-4-cyanophenoxy)cyclohexyl)-6-(4-((4-(2-(2,4-dioxotetrahydropyrimidin-1(2H)-yl)-1,3-dioxoisoindolin-4-yl)piperazin-1-yl)methyl)piperidin-1-yl)pyridazine-3-carboxamide]: the inhibition at 0.01 µM lay within 5 to 10% in [3], 10 to 15% in test [4] and 10 to 15% in test [5]. Besides, the inhibition at 0.5 µM in [3] lay in the range of 20 to 25%; in test [4], 20 to 30%; in test [5], 20 to 30%.

For the compound `CC(=O)c1c(C)c2cnc(Nc3ccc(N4CCC(N5CCN(Cc6ccc7c(c6)C(=O)N(N6CCC(=O)NC6=O)C7=O)CC5)CC4)cn3)nc2n(C2CCCC2)c1=O` [GT-06583, 5-((4-(1-(6-((6-acetyl-8-cyclopentyl-5-methyl-7-oxo-7,8-dihydropyrido[2,3-d]pyrimidin-2-yl)amino)pyridin-3-yl)piperidin-4-yl)piperazin-1-yl)methyl)-2-(2,4-dioxotetrahydropyrimidin-1(2H)-yl)isoindoline-1,3-dione], the inhibition at 0.01 µM in test [8] (H292, 10 nM, read-out: Inhibition Rate at 10 nM (%)) lay within 35 to 40%; in [9] (MV-4-11, 10 nM, read-out: Inhibition Rate at 10 nM (%)), 40 to 60%. Also, the inhibition at 0.5 µM in [8] (H292, 500 nM, read-out: Inhibition Rate at 500 nM (%)) was in the range of 40 to 60%; in [9] (MV-4-11, 500 nM, read-out: Inhibition Rate at 500 nM (%)), 40 to 60%.

Take `N#Cc1ccc(O[C@H]2CC[C@H](NC(=O)c3ccc(N4CCC(CN5C[C@H]6C[C@@H]5CN6c5ccc6c(c5)C(=O)N(N5CCC(=O)NC5=O)C6=O)CC4)nn3)CC2)cc1Cl` [GT-05227, N-((1r,4r)-4-(3-chloro-4-cyanophenoxy)cyclohexyl)-6-(4-(((1R,4R)-5-(2-(2,4-dioxotetrahydropyrimidin-1(2H)-yl)-1,3-dioxoisoindolin-5-yl)-2,5-diazabicyclo[2.2.1]heptan-2-yl)methyl)piperidin-1-yl)pyridazine-3-carboxamide]: the inhibition at 0.01 µM in test [3] is 15 to 20%; in test [4], 20 to 30%; in [5] it was 5 to 10%. The inhibition at 0.5 µM in [3] is 25 to 30%; in test [4], 20 to 30%; in test [5], 20 to 30%.
